One experiment deals with T1, vanilloid receptor (Rattus norvegicus, UniProt O35433).
T1 construct: DRG nerve cells from the primary culture of 2 days were equilibrated; endogenous in cells; host or cells: primary culture of dorsal root ganglion neurons from neonatal SD rats
Put plainly: 45Ca influx test in primary culture of neonatal rat DRG neurons, inhibition of the capsaicin response. As to conditions: DRG nerve cells; capsaicin 0.5 µM; 45Ca 10 µCi/ml; 10 mins at room temperature; read-out: Antagonist Calcium Uptake Test (IC50). Format: cell-based, SD rats. As to the method: 1) Separation of spinal dorsal root ganglia (DRG) in newborn rats and primary culture thereof
Neonatal (2-3 day old or younger than 2-3 day old) SD rats were put in ice for 5 minutes to anesthetize and disinfected with 70% ethanol. DRG of all part of spinal cord were dissected (Wood et al., 1988, J. Neurosci. 8, pp3208-3220) and collected in DME/F12 medium to which 1.2g/l sodium bicarbonate and 50mg/l gentamycin were added. The DRG were incubated sequentially at 37°C for 30 min in 200 U/ml collagenase and 2.5mg/ml trypsin, separately. The ganglia were washed twice with DME/F12 medium supplemented with 10% horse serum, triturated through a fire-polished Pasteur pipette, filtered through Nitex 80 membrane to obtain single cell suspension and the suspension was washed once more. This was subjected to centrifugation, then resuspended in cell culture medium at certain level of cell density. As the cell culture medium, DME/F12 medium supplemented with 10% horse serum was diluted with identical medium conditioned by C6 glioma cells 2 days on a confluent monolayer (1:1), and NGF (Nerve Growth Factor) was added to adjust 200ng/ml as final concentration. After the cells were grown for 2 days in medium where cytosine arabinoside (Ara-C, 100 µM) was added to kill dividing nonneuronal cells, medium was changed to one without Ara-C. The resuspended cells were plated at a density of 1500-2000 neurons/well onto Terasaki plates previously coated with 10 µg/ml poly-D-ornithine.
2) ^45 Ca influx experiments
DRG nerve cells from the primary culture of 2 days were equilibrated by washing 4 times with HEPES (10mM, pH 7.4)-buffered Ca ^2+, Mg^2+-free HBSS (H-HBSS). The solution in each well was removed from the individual well. Medium containing the test compound plus capsaicin (final concentration 0.5 µM) and ^45Ca (final concentration 10 µCi/ml) in H-HBSS was added to each well and incubated at room temperature for 10 mins. Terasaki plates were washed five times with H-HBSS and dried at room temperature. To each well, 0.3% SDS (10 µl) was added to elute ^45Ca. After the addition of scintillation cocktail into each well, the amount of ^45Ca influx into neuron was measured by counting radioactivity. Antagonistic activities of test compounds against vanilloid receptor were calculated as percent of the inhibition of maximal response of capsaicin at a concentration of 0.5 µM. […]

In a further experiment the test system is Male ICR mice. Put plainly: Analgesic activity test: mouse writhing test induced with phenyl-p-quinone. Format: in vivo. Particulars: writhes counted vs control group. Here is the method: 2. Analgesic activity test: Mouse writhing test by inducing with phenyl-p-quinone
Male ICR mice (mean body weight 25g) were maintained in a controlled lighting environment (12 h on/ 12 h off) for experiment. Animals received an intraperitoneal injection of 0.3ml of the chemical irritant phenyl-p-quinone (dissolved in saline containing 5% ethanol to be a dose of 4.5mg/kg) and 6 mins later, the number of abdominal constrictions was counted in the subsequent 6 mins period. Animals (10 animals/group) received 0.2ml of test compounds solution in vehicle of ethanol/Tween 80/saline (10/10/80) intraperitoneally 30 min before the injection of phenyl-p-quinone. A reduction in the number of writhes responding to the test drug compound relative to the number responding in saline control group was considered to be indicative of an analgesic effect. Analgesic effect was calculated by % inhibition equation (% inhibition=(C-T)/C x 100), wherein C and T represent the number of writhes in control and compound-treated group, respectively (Table 2).

pIC50: −log10 of the molar value.

T1 sequence (O35433 whole entry): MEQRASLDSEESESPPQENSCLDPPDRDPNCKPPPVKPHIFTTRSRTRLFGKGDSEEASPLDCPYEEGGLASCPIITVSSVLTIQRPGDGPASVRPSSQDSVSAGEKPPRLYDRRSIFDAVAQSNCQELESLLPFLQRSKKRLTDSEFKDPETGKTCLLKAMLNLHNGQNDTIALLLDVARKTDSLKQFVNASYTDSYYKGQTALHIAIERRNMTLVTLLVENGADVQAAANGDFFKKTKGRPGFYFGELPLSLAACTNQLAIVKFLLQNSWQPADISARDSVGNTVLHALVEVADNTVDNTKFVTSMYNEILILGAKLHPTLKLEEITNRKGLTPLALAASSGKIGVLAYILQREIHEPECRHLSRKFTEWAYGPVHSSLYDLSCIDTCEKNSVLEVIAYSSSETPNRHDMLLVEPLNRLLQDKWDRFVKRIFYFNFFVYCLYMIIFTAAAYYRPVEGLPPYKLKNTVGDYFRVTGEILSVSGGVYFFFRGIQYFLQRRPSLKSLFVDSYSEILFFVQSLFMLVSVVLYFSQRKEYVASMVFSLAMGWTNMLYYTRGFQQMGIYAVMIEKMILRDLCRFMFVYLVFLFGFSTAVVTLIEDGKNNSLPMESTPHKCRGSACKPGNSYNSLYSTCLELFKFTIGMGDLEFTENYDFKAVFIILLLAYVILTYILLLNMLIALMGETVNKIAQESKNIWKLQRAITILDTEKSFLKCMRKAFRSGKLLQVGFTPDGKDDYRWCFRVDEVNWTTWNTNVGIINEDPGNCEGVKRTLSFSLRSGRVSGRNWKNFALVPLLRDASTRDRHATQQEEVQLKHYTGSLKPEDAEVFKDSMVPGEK

By pIC50 is commonly meant the IC50 on a negative log10 scale, so that one unit is a factor of ten. Regarding `C=Cc1cc(CNC(=S)NCc2ccc(C(C)(C)C)cc2)ccc1NS(C)(=O)=O` [Example 1, N-{4-[3-(4-t-butylbenzyl)thioureido-methyl]-2-vinyl-phenyl} methanesulfonamide], at vanilloid receptor, the pIC50 was 7.27. Further, in the experiment on Male ICR mice (Dose 0.3 mg/kg intraperitoneally 30 min before phenyl-p-quinone (4.5mg/kg)), the “Analgesic effect (%Inhibition)” value was determined as 93%. As for `C=Cc1cc(CNC(=S)NCc2ccc(C(C)(C)C)cc2)cc(C(F)(F)F)c1NS(C)(=O)=O` [Example 2, N-{4-[3-(4-t-butylbenzyl)thioureido-methyl]-2-trifluoromethyl-6-vinyl-phenyl}methanesulfonamide], the pIC50 on vanilloid receptor is 6.48. `C=Cc1cc(CNC(=S)NCc2ccc(C(C)(C)C)cc2)cc(F)c1NS(C)(=O)=O` [Example 3, N-{4-[3-(4-t-butylbenzyl)thioureido-methyl]-2-fluoro-6-vinyl-phenyl}methanesulfonamide]: the negative-log IC50 (pIC50) at vanilloid receptor was 7.46. Further, in the experiment with Male ICR mice (Dose 1 mg/kg intraperitoneally 30 min before phenyl-p-quinone (4.5mg/kg)), the “Analgesic effect (%Inhibition)” value was 57%. In the case of `C=Cc1cc(CNC(=S)NCc2ccc(C(C)(C)C)cc2)cc(Cl)c1NS(C)(=O)=O` [Example 4, N-{4-[3-(4-t-butylbenzyl)thioureido-methyl]-2-chloro-6-vinyl-phenyl}methanesulfonamide], the negative-log IC50 (pIC50) at vanilloid receptor was 7.03. Same read-out and setting: to `C=Cc1cc(CNC(=S)NCc2ccc(C(C)(C)C)cc2)cc(C)c1NS(C)(=O)=O` [Example 5, N-{4-[3-(4-t-butylbenzyl)thioureido-methyl]-2-methyl-6-vinyl-phenyl}methanesulfonamide] belongs 6.72; to `C=Cc1cc(C(C)NC(=S)NCc2ccc(C(C)(C)C)cc2)cc(F)c1NS(C)(=O)=O` (centres unmarked) [Example 6, N-(4-{1-[3-(4-t-butylbenzyl)thioureido]ethyl}-2-fluoro-6-vinyl-phenyl) methanesulfonamide], 6.92.

The values above are taken from patent EP1862454A1, “Novel compounds, isomer thereof or pharmaceutically acceptable salts thereof as vanilloid receptor antagonist; and a pharmaceutical composition containing the same” (Amorepacific Corporation, priority 2006, dated 2007).
